Reference: PMC4444023 (PLoS ONE, 2015)
“And” between values parts separate entries of the source, which are not always exact repeats. Equal entries are not always repeated. “Also recorded” adds a separate entry of the source.

Tests used:
human nSMase2 = molecular target: T1, human nSMase2 (Homo sapiens, UniProt Q9NY59); experiment: 14C-SM confirmatory direct activity assay; assay type: biochemical; parameters: Full length human nSMase2 cDNA with a C-terminal Flag tag; host or cells: HEK293, stably transfected; crude cell lysate used as enzyme
T1 sequence (Q9NY59 1-655): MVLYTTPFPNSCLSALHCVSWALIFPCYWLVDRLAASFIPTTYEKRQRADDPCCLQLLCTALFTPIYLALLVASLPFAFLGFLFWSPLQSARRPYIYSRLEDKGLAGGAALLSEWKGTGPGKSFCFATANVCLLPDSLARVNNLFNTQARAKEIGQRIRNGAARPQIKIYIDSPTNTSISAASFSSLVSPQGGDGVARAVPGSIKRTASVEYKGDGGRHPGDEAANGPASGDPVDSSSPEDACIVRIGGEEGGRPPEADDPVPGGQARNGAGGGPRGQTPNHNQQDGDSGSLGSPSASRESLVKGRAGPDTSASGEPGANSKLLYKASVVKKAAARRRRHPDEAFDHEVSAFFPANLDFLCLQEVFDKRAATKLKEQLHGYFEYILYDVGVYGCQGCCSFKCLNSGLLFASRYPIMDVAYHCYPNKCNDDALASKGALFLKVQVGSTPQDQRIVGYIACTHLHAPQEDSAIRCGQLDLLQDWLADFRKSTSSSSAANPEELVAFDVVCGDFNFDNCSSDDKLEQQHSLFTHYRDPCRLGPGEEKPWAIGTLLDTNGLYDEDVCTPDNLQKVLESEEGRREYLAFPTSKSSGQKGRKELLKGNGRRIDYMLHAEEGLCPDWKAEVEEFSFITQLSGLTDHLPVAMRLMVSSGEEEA
Protocol: This assay was dependent on the direct hydrolysis of ^14C-labeled SM (^14C N-methyl groups in the phosphorylcholine) by human nSMase2. Optimization of assay conditions was accomplished according to the methods of Barbone et al.. Briefly, bovine [N-methyl-^14C]-sphingomyelin (specific activity […], Perkin Elmer) and phosphatidylinositol (Avanti Polar Lipids) were evaporated to dryness under a stream of nitrogen and resuspended at an equimolar concentration of 0.1 mM in water with 0.5% Triton X-100 (Sigma). The solution was vortexed for 30 min and then sonicated for 30 min. Assay conditions were as follows: 50 μl total volume per reaction, consisting of 20 μM SM, reaction buffer (100 mM Tris-HCl pH 7.5, 80 mM MgCl2, 0.1% Triton X-100); 10 μl cell lysate containing recombinant human nSMase2 (0.5–1 μg protein/assay) and 5 μl of compound in reaction buffer containing 10% DMSO. After 1 h incubation at 37°C the reaction was terminated by the addition of 30 μl of water and 175 μl of chloroform/methanol (2:1, v:v), followed by vigorous vortexing. Tubes were centrifuged for 5 min at 10,000 xg at room temperature to separate the organic bottom phase containing labeled SM and the aqueous upper phase containing ^14C-labeled-phosphorylcholine. An aliquot (50 μl) of the upper phase was transferred to a vial with 10 ml of scintillant and counted for 2 min on a Beckman LS-6000IC scintillation counter. Enzyme activity was directly proportional to the disintegrations per min (dpm) resulting from the generation of ^14C-phosphorylcholine.

SIRT2 = conditions: NAD-dependent deacetylase activity; cited from earlier work
aSMase = molecular target: aSMase; parameters: method as in earlier work; conditions: ref personal communication with Drs. Marc Ferrer and Wei Zheng, NCATS; cited from earlier work
[1] = test system: rat primary hippocampal neurons; experiment: Dendrite length (MAP2 imaging); assay type: cell-based; conditions: for dendrite length, Mean: in µm (unit assumed)
Protocol: Quantification of neuronal morphology was done in primary hippocampal neurons plated in PEI-coated ultra-thin and optically clear flat bottom 96-well plates (Corning). […] Neurons were then fixed with 4% paraformaldehyde, and permeabilized with 0.1% Triton X-100 in phosphate-buffered saline (PBS-T) for 20 min at room temperature. Blocking was done for 1 h with 5% normal goat serum solution, then incubation with anti-MAP2 antibody (1:500, Sigma) was done, followed by three washes with PBS-T and 2 h incubation with Alexa 595 secondary antibody (1:500, Life Technologies). Dendrites were imaged with a 20X objective using a Zeiss Axio Observer Z1 microscope equipped with an Orca ER CCD camera (Hamamatsu Inc). A 6x6 image was obtained from each culture well, and a montage was created using Neurolucida imaging software (mbf Biosecience). The effects of the experimental treatments on dendrite length were determined and the results presented are the average of 5–6 individual experiments. Statistical significance was determined by one-way ANOVA analysis.

SMILES: O=c1[nH]c(=S)[nH]c(-c2ccccc2)c1Cc1c(O)ccc2ccccc12 [Cambinol, cambinol]
- %Inhibition (human nSMase2; Log [compound] -3.0): 92.0% and 91.0%
- %Inhibition (human nSMase2; Log [compound] -3.47756): 99.0% and 86.0%
- %Inhibition (human nSMase2; Log [compound] -4.0): 83.0% and 80.0%
- %Inhibition (human nSMase2; Log [compound] -5.0): 56.0% and 57.0%
- %Inhibition (human nSMase2; Log [compound] -5.47756): 46.0% and 47.0%
- %Inhibition (human nSMase2; Log [compound] -6.0): 13.0% and 15.0%
- %Inhibition (human nSMase2; Log [compound] -7.0): 0.0% and 10.0%
- %Inhibition (human nSMase2; Log [compound] -7.47756): 8.0% and 10.0%
- %Inhibition (human nSMase2; Log [compound] -8.0): 8.0% and 11.0%
- %Inhibition (human nSMase2; Log [compound] -8.47756): 14.0% and 7.0%
- %Inhibition (human nSMase2; Log [compound] -9.0): 6.0% and 4.0%
- %Inhibition (human nSMase2; Log [compound] -9.47756): 12.0% and 18.0* %
- inhibition at 10 µM (human nSMase2; at 10 μM): > 80%
- IC50 (SIRT2): 59 µM
- IC50 (aSMase): > 10 µM
- dendrite length, Mean ([1]; 100 ng/ml TNFα 18 h, 0.1 µM Cambinol): 9111.111
- dendrite length, Mean ([1]; 100 ng/ml TNFα 18 h, 0.3 µM Cambinol): 11450
- dendrite length, Mean ([1]; 100 ng/ml TNFα 18 h, 1 µM Cambinol): 13799
- dendrite length, Mean ([1]; 100 ng/ml TNFα 18 h, 3 µM Cambinol): 14262.5
- dendrite length, Mean ([1]; 100 ng/ml TNFα 18 h, 10 µM Cambinol): 18867
- dendrite length, Mean ([1]; 100 ng/ml TNFα 18 h, 30 µM Cambinol): 16000
- dendrite length, Mean ([1]; No TNFα, 30 µM Cambinol): 15151.25
- effect on TNFα-induced dendrite damage ([1]; decrease in dendritic length): prevented; also recorded: protected
